Measured values taken from US20060167109A1, “Methods of reducing rhinovirus contagion and related compositions” (priority 2002, published 2006).

How the values were obtained:
HRV, four serotypes = test: Virus yield reduction assay, single cycle of growth; assay type: cell-based, human rhinovirus; conditions: all four viruses, nontoxic drug concentrations, MOI 1, 12 hours
Procedure: To assess the inhibition by pleconaril of HRV production from a single cycle of virus replication, virus yield experiments were performed. Cells were infected at a multiplicity of infection (MOI) of 1 infectious virion per cell with virus that had been pre-treated with pleconaril at various drug concentrations. After 12 hours of infection (a single replication cycle), the amount of virus produced was quantified. Pleconaril inhibited virus production in a concentration dependent manner. The yield of progeny virus was reduced by >99% for all four viruses at nontoxic drug concentrations.
Virus was pretreated with various concentrations of pleconaril for 1 hour at 4° C. Confluent, 1-day-old monolayers of Hela (WIS) cells in 6 well plates were infected with virus at a multiplicity of infection (MOI) of approximately 1 plaque-forming unit per cell. After a 1 hour attachment period at 33° C., the inoculum was removed, the monolayers were washed 3 times with Dulbeccos modified phosphate buffer (DPBS)(JRH Biosciences, Lenexa, Kans.) and overlaid with 3 ml of media containing either the appropriate concentration of pleconaril or drug solvent (0.25% DMSO) alone. Incubation was continued for 12 hours at 33° C. and 2.5% CO2. All plates were frozen/thawed 3 times at −80° C. prior to quantification of virus yield in the virus cytopathic effect assay.

HRV3 [1] = test: Multiple rounds of replication; assay type: cell-based, human rhinovirus; conditions: 2 μM added four hours post-attachment
Procedure: The next experiments were designed to answer the question as to whether the addition of pleconaril after the uncoating stage could affect the ability of progeny virions to initiate subsequent rounds of replication, i.e. reduce the infectivity of progeny virions. Cells were infected with HRV3 at a low MOI (0.01 pfu/cell) at room temperature. After removal of unattached virus, fresh medium was added and the cells were shifted to the higher temperature to allow uncoating to proceed. Four hours post-attachment, pleconaril or DMSO alone was added to the cultures, and plates were frozen at 12 hours (upon completion of a single cycle of replication) and 24 hours (upon completion of a second round of replication) post-infection. Virus yield from both rounds of replication was determined in the viral cytopathic effect assay.
HeLa cells in 6 well plates were infected with HRV3 at an MOI of 0.001 or 0.01 pfu/cell for 1 hour at room temperature in duplicate. The virus inoculum was then removed and the monolayers washed twice with DPBS. The cells were overlaid with 3 mL of M199 medium with 5% FBS and placed at 33° C. (HRV3). After 4 hrs, half of the wells received pleconaril to a final concentration of 2 μM in 0.5% DMSO, and half received DMSO alone. […] Virus yield was determined in the cytopathic effect assay after 2 cycles of chloroform extraction.

[2] = Cell toxicity (MTT) assay of cell growth; conditions: human, HeLa (WIS) cells; methyltetrazolium dye-based assay of cell growth
Procedure: To properly evaluate antiviral activity in cell culture assays, the 50% cytotoxic concentration (CC50) of the test compound was first determined so that any inhibitory effects on virus replication could be distinguished from effects due to compound cytotoxicity. The CC50 of pleconaril was determined using a methyltetrazolium dye-based assay of cell growth (Pevear, et al., 1999, Antimicrob. Agents Chemother., 43, 2109-2115).
Pleconaril was solubilized in dimethyl sulfoxide (DMSO). After dilution to the desired drug concentration, the final DMSO concentration in assays was 0.25%.

human plasma proteins = test: Plasma protein binding; assay type: in vitro ADME
[3] = Clinical pharmacokinetics: food effect, linearity, renal excretion; assay type: in vivo, human
Procedure: Pleconaril was administered with food in all Phase II and III clinical studies conducted by Applicants.
Pleconaril has a volume of distribution (Vz/F) that is consistent with significant tissue distribution despite the fact that pleconaril is highly bound (>99%) to plasma protein. Pleconaril is a low systemic clearance drug. Renal clearance contributes insignificantly to the systemic clearance of pleconaril. Less than 1% of the dose is excreted unchanged as pleconaril in urine.

HRV3 [4] = test: RNA replication, viral RNA synthesis; assay type: cell-based, human rhinovirus; conditions: 2 μM, pleconaril-treated cells
Procedure: Immediately after uncoating, viral gene expression (protein translation) and viral RNA replication begin. However, uncoating must occur before either of these two processes can be initiated. In experiments conducted similarly to the uncoating experiment described above, an experiment was conducted to measure viral RNA synthesis in the presence and absence of pleconaril. At the end of the 2 hours temperature shift, actinomycin D was added to the culture medium to inhibit cellular DNA-dependent RNA synthesis. After 2 hours in the presence of actinomycin D, no cellular RNA synthesis was detectable. At that time, ^3H-uridine was added to the medium and the incubation was allowed to proceed 2.5 hours (a total of 6.5 hours post-attachment). Total cellular RNA was then recovered, electrophoresed on an agarose-urea gel and visualized by fluorography.
HeLa cells in 6 well plates were infected at an MOI of 5 PFU/cell with 1 mL of HRV3 for 1 hour at room temperature in the presence or absence of 2 μM pleconaril. After virus attachment, the incubation was continued for an additional 2 hrs at 33° C. (HRV3). The inoculum was then removed and 3 mL/well of M199 medium with 5% FBS and 5 μg/mL of actinomycin D was added with 2 μM pleconaril or DMSO only (0.5% final concentration). The cells were returned to the incubator for 2 hours, at which time 300 μCi of ^3H-uridine (Amersham) was added per well. […]

SMILES: Cc1cc(CCCOc2c(C)cc(-c3noc(C(F)(F)F)n3)cc2C)on1 [pleconaril, 3-[3,5-dimethyl-4-[3-(3-methyl-5-isoxazolyl)propoxy]phenyl]-5-(trifluoromethyl)-1,2,4-oxadiazole]
- reduction of yield of progeny virus (HRV, four serotypes): > 99%
- yield of progeny virions from the first round of virus replication (HRV3 [1]; 12 hours): little effect
- second round of replication (HRV3 [1]; 24 hours): completely prevented
- CC50 [2]: 12.5 to 25 µM
- protein bound (human plasma proteins): > 99%
- pharmacokinetic profile, dose dependence ([3]; plasma concentration range exceeding the proposed regimen by approximately 2-fold): dose proportional and linear
- dose excreted unchanged as pleconaril in urine ([3]; urine): Less than 1%
- increase of absorption when administered with food ([3]; with food): 3-4 fold
- HRV3 RNA synthesis (HRV3 [4]): completely blocked
